In patent US10709714B2 (CL BioSciences LLC, priority 2013, dated 2020):
Entries after “also recorded” stand apart in the source; their conditions may differ. Marks after values point to notes of the source that are not given here.

Tests used:
[1] = system: human PTH cells co-cultured with MTC-SK cell line; assay: PTH cell / MTC-SK co-culture: PTH and calcitonin transcription and secretion; assay type: cell-based; conditions: preincubation 10 mins, YF476 10 nM
Experimental: Human PTH cells isolated from surgical specimens were co-cultured with the MTC-SK cell line. […] These effects could be reversed by preincubation (10 mins) with the selective CCK2 receptor antagonist, YF476 (10 nM). […] PET=polyester membrane ([…]).
These effects were reversed by preincubation with the selective CCK2 antagonist, YF476.

[2] = system: ovariectomized CD-1 mice; assay: Circulating blood markers, Model 1 mouse OVX; assay type: in vivo
Experimental: Ovariectomy increased all three bone markers, PINP, CTX1 and osteocalcin. […] CON=control animals, OVX=ovariectomized animals, OVX+GA=gastrin antagonist treated ovariectomized animals. Mean±SEM. *p<0.05 vs. CON, **p<0.05 vs. OVX alone.
Circulating bone biomarkers were also altered by OVX. Specifically, PINP was increased (0.19±0.01 ng/ml vs. 0.1y±0.006, p<0.05) as was CTx-1 (0.60±0.14 ng/ml vs. 0.29±0.13, p<0.05) and osteocalcin was elevated (6.7±2.3 ng/ml vs. 4.1±1.2, p<0.05). Treatment with the antagonist attenuated each of these three ovariectomy-mediated alterations.

[3] = biological target: T1, CCK2 receptor (Homo sapiens, UniProt P32239); assay: Gastrin-stimulated cAMP production and calcitonin release/transcription in MTC-SK cells; assay type: cell-based; conditions: MTC-SK cells
T1 construct: Gastrin stimulated both cAMP as well as calcitonin release from the well-differentiated human MTC cell line, MTC-SK; endogenous in cells; host or cells: MTC-SK (human medullary thyroid carcinoma cell line)
T1 sequence (P32239 1-447): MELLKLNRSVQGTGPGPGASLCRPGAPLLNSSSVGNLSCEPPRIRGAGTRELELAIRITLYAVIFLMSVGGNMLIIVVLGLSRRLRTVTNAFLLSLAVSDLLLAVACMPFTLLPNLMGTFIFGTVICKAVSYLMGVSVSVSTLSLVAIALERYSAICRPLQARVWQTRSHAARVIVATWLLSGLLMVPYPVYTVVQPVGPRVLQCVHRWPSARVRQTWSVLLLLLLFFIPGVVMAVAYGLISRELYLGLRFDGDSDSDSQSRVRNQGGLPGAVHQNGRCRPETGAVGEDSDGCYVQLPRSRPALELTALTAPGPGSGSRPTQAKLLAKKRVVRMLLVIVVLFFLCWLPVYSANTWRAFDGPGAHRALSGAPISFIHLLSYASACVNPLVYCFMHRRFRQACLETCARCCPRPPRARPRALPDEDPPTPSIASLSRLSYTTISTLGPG

[4] = system: ovariectomized CD-1 mice; assay: Bone strength (Instron), Model 1 mouse OVX; assay type: in vivo
[5] = system: ovariectomized CD rats; assay: Circulating blood markers, Model 2 rat OVX; assay type: in vivo
Experimental: Ovariectomy increased PINP and osteocalcin. […] CON=control animals, OVX=ovariectomized animals, OVX+GA=gastrin antagonist treated ovariectomized animals. Mean±SEM. *p<0.05 vs. CON, **p<0.05 vs. OVX alone.
Circulating bone biomarkers were also altered by OVX. Specifically, both PINP (0.57±0.18 ng/ml vs. 0.35±0.06, p<0.05) and osteocalcin was elevated (1.35±0.9 ng/ml vs. 0.43±0.07, p<0.05). Treatment with the antagonist attenuated each of these ovariectomy-mediated alterations.

[6] = system: ovariectomized CD-1 mice; assay: MicroCT of trabecular and cortical bone, Model 1 mouse OVX; assay type: in vivo
[7] = system: calvarial osteoblasts, hFOB, BMMSCs; assay: Bone mineralization of bone-derived cells (fluorescent binding to hydroxyapatite); assay type: cell-based, mouse, human; conditions: pre-incubation
Experimental: The binding of fluorescent Osteomalge to the hydroxyapatite portion of mineralized nodules was measured.

[8] = OVX CD-1 mice + omeprazole, GA 15 ug/animal single s.c., 8 weeks
[9] = OVX CD-1 mice, GA-treated vs control
[10] = OVX CD rats + omeprazole, GA 50 ug/animal single s.c., 8 weeks
[11] = OVX CD rats, GA-treated vs control
[12] = OVX CD-1 mice + omeprazole, GA 15 ug/animal single s.c., 8 weeks, cortical bone
[13] = OVX CD-1 mice + omeprazole, GA 15 ug/animal single s.c., 8 weeks, trabecular bone
[14] = OVX CD-1 mice, GA-treated vs control, cortical bone
[15] = OVX CD-1 mice, GA-treated vs control, trabecular bone

SMILES: CNc1cccc(NC(=O)N[C@@H]2N=C(c3ccccn3)c3ccccc3N(CC(=O)C(C)(C)C)C2=O)c1 [YF476, netazepide]
- effect on gastrin effects in co-culture [1]: reversed
- CTX-1 [2, 8]: 053 ng/mL
- ESR (circulating estrogen) [2, 8]: 1.47 pg/mL
- Gastrin (circulating) [2, 8]: 2971 pg/mL
- Osteocalcin [2, 8]: 5.3 ng/mL
- PINP [2, 8]: 0.169 ng/mL
- PTH (circulating) [2, 8]: 92.1 pg/mL
- % Change CTX-1 [2, 9]: −9%**
- % Change ESR [2, 9]: −71%*
- % Change Gastrin [2, 9]: +22%
- % Change Osteocalcin [2, 9]: +30%**
- % Change PINP [2, 9]: 0%**
- % Change PTH [2, 9]: +79%*
- effect on gastrin-mediated calcitonin secretion [3]: reversed
- effect on gastrin-stimulated cAMP production [3]: reversed
- effect alone on cAMP production ([3]; without gastrin): no significant effect
- Max Load [4, 8]: 44.1
- Stiffness [4, 8]: 285
- Total Work [4, 8]: 19.4
- Yield (Stiffness) [4, 8]: 256
- Fracture Load ([4]; OVX CD-1 mice + omeprazole, GA 15 ug/animal single s.c., 8 weeks, listed as GA): 42.8
- Fracture Load ([4]; OVX CD-1 mice + omeprazole, GA 15 ug/animal single s.c., 8 weeks, listed as gastrin antagonist): 43±6
- % Change Fracture Load [4, 9]: −24%*
- % Change Max Load [4, 9]: −28%*
- % Change Stiffness [4, 9]: −3%**
- % Change Total Work [4, 9]: −4%**
- % Change Yield (Stiffness) [4, 9]: −5%**
- CTX1 [5, 10]: 0.42
- ESR (circulating estrogen) [5, 10]: 2.1 pg/mL
- Gastrin (circulating) [5, 10]: 2971 pg/mL
- Osteocalcin [5, 10]: 0.80 ng/mL
- PINP [5, 10]: 0.48 ng/mL
- PTH (circulating) [5, 10]: 1562
- % Change CTX1 [5, 11]: −49%
- % Change ESR [5, 11]: −60%*
- % Change Gastrin [5, 11]: +183%*
- % Change Osteocalcin [5, 11]: +81%**
- % Change PINP [5, 11]: +41%
- % Change PTH [5, 11]: −15%
- BS [6, 12]: 11.3
- BV/TV [6, 12]: 0.93
- Ct. Th [6, 12]: 0.21
- pMOI [6, 12]: 0.35
- Dens (Apparent Density, cortical) ([6]; OVX CD-1 mice + omeprazole, GA 15 ug/animal single s.c., 8 weeks, cortical bone, listed as GA): 1025
- Dens (Apparent Density, cortical) ([6]; OVX CD-1 mice + omeprazole, GA 15 ug/animal single s.c., 8 weeks, cortical bone, listed as Gastrin-antagonist): 1025±37
- BS [6, 13]: 16.8
- BV/TV [6, 13]: 0.123
- Conns-Dens [6, 13]: 128.6
- SMI [6, 13]: 1.38
- Tb. N [6, 13]: 2.43
- Tb. Sp [6, 13]: 0.528
- Tb. Th [6, 13]: 0.051
- Dens (Apparent Density, trabecular) ([6]; OVX CD-1 mice + omeprazole, GA 15 ug/animal single s.c., 8 weeks, trabecular bone, listed as GA): 70.7
- Dens (Apparent Density, trabecular) ([6]; OVX CD-1 mice + omeprazole, GA 15 ug/animal single s.c., 8 weeks, trabecular bone, listed as Gastrin antagonist): 70.7±19
- % Change BS [6, 14]: −15%*
- % Change BV/TV [6, 14]: 2%*
- % Change Ct. Th [6, 14]: +39%*^,**
- % Change Dens (Apparent Density, cortical) [6, 14]: −11%*^,**
- % Change pMOI [6, 14]: −11%
- % Change BS [6, 15]: −32%*^, **
- % Change BV/TV [6, 15]: −33%*^, **
- % Change Conns-Dens [6, 15]: −62%*^, **
- % Change Dens (Apparent Density, trabecular) [6, 15]: −60%*^, **
- % Change SMI [6, 15]: +20%**
- % Change Tb. N [6, 15]: −30%*^, **
- % Change Tb. Sp [6, 15]: +82%*
- % Change Tb. Th [6, 15]: +28%*
- effect on gastrin inhibition of mineralization [7]: inhibited; also recorded: not reversed
